Here are results for 8 compounds from patent US7932284B2, “Indole sulfonamide modulators of progesterone receptors” (Eli Lilly and Company, priority 2006, dated 2011).

pIC50: −log10 of the molar value.

Series [1] relates to uterine C3 expression (complement 3 mRNA; PR antagonist potential). As to the kind of experiment: C3 Rat Uterine Assay. Format: in vivo, Sprague Dawley female rats. The conditions noted are these: immature female rats, oral gavage, with R5020 0.1 mg/kg sc and ethynyl estradiol 50 ug/kg, 3 doses at 24 hour intervals. As for the experimental part: Addition of a potential PR antagonist can then neutralize the blocking effect of the PR agonist, resulting in a measurable increase in uterine C3 expression.
Immature Sprague Dawley female rats (21 days old, each approximately 50 g in weight) are first administered the R5020 progestin subcutaneously in sesame oil vehicle at 0.1 mg/kg. The rats are then treated with ethynyl estradiol at a dose of 50 ug/kg plus a compound of interest at doses ranging from 1-30 mg/kg made up in 20% β-hydroxycyclodextran in water for an oral gavage volume of 0.3 ml. This dosing is done 3 times at 24 hour intervals. The control groups include rats treated with one of the following (administered and dosed as described above): 1) estrogen (E2) vehicle+R5020 vehicle, 2) E2+R5020 vehicle, 3) E2+R5020, and 4) E2+R5020+asoprisnil (comparator compound, 5 mg/kg). The rats are sacrificed by decapitation 2 hours after the final dose (50 hours total dosing time). Uteri are removed and cleaned of adipose tissue, and ½ (1 uterine horn) is flash-frozen in liquid nitrogen. The tissue is homogenized in TRIzol reagent using lysing matrix beads.
The RNA is isolated by chloroform extraction of the homogenized tissue, followed by isopropanol precipitation of the aqueous layer. The RNA is further purified by binding to a silica-gel based membrane or magnetic bead with a nucleic acid binding surface, and then eluted off with water. The RNA is converted to single strand cDNA via reverse transcriptase. These cDNA templates are analyzed by quantitative real-time PCR which multiplexes the C3 primer/probe set to an endogenous control gene. The resulting C3 data is normalized to the internal control. (Adapted from Lundeen, S. G. et al. J. Steroid Biochemistry and Molecular Biology, 2001, 78, 137-143.) Table 9 below provides data for representative compounds prepared according to the present invention.

In series [2] the test system is uterine endometrial transformation. Nature of the series: McPhail Assay. The conditions noted are these: rabbits; for McPhail Index** @ 10 mpk (Antagonist Mode): in combination with progesterone on days 7-12, antagonist mode; for McPhail Index** @ 30 mpk (Agonist Mode): compound alone on days 7-12, agonist mode. Format: in vivo, New Zealand White Rabbits. As for the experimental part: The effects of progesterone receptor modulators on uterine endometrial transformation are evaluated in New Zealand White Rabbits (Harlan, 800-900 g) using the McPhail assay adapted from McPhail, MK. J Physiol, 1934:145-156. To evaluate antagonistic effects of compounds, the rabbits are treated sc with cyclodextrin-encapsulated 17-β-estradiol (Sigma, 10.52 ug/kg/day in 1 ml of saline) on days 1-6. The rabbits are then treated sc with progesterone (Sigma, 1.0 mg/kd/day in 1 ml of corn oil) in combination with compound of the present invention (in 15% Povidone K12, 10% Pluronic F68 (poloxamer 188) in deionized water (DIW): probe sonicated to mean<2 micron, 3 ml dose volume) on days 7-12. To evaluate agonist effects of compound, the rabbits are treated with either a compound of interest or progesterone alone on days 7-12. On day 13 the animals are sacrificed, uteri removed and fixed in zinc formalin (Richard-Allan Scientific). The fixed uteri are sectioned into 2-3 mm transverse slices and stained with haematoxylin and eosin. A total of six slices (a proximal, medial and distal section from each uterine horn) are evaluated histologically and the progestational effect is scored using the McPhail index. The McPhail test can be used to identify SPRMs.

For series [3], the target named is T1, human progesterone receptor (PR) (Homo sapiens, UniProt P06401).
T1 construct: expressed in transfected cells; host or cells: HEK293
T1 sequence (P06401 1-933): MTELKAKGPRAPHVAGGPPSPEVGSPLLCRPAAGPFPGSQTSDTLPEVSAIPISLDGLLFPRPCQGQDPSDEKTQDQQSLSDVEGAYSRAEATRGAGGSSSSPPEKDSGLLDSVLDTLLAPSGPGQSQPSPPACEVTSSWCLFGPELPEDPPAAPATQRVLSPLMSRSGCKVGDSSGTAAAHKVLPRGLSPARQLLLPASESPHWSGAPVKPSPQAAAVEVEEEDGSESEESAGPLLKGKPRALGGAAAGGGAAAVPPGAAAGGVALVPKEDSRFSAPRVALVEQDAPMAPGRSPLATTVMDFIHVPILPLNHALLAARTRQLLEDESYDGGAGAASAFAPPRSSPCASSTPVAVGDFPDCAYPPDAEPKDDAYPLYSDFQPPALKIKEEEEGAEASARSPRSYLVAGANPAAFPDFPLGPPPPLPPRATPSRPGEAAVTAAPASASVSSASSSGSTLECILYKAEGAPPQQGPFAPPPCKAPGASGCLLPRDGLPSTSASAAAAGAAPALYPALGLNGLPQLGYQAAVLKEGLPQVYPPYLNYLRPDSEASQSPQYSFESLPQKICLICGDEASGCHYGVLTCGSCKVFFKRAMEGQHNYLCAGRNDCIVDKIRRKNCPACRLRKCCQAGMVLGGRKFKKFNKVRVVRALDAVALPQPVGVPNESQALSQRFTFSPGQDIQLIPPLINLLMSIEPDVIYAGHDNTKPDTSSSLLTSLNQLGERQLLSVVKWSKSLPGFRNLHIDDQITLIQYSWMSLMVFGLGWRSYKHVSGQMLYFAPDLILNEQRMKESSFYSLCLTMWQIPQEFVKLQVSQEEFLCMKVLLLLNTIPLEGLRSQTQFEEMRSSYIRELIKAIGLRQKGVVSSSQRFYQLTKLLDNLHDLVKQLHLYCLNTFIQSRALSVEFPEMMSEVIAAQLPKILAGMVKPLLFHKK
As to the kind of experiment: PR CTF assay (co-transfected HEK293 cells, GRE-luciferase reporter). Format: cell-based. The conditions noted are these: antagonist mode, with 0.05-0.08 nM R5020, 24 h. As for the experimental part:
Human embryonic kidney HEK293 cells are co-transfected using Fugene. Briefly, the reporter plasmid pGL3 containing two copies of GRE (glucocorticoid response element ^5'[NT]3) and TK promoter upstream of the luciferase reporter cDNA is transfected with a plasmid constitutively expressing human progesterone receptor (PR), using viral CMV promoter. Cells are transfected in T225 cm^2 flasks in DMEM media with 5% charcoal-stripped Fetal Bovine Serum (FBS). After an overnight incubation, transfected cells are trypsinized, plated in 96 well dishes in DMEM media containing 5% charcoal-stripped FBS, incubated for 4 h and then exposed to various concentrations of test compounds in 1:4 dilution increments. In the antagonist assays low concentrations of agonist (0.05-0.08 nM of R5020) is also added to the media. After 24 h of incubation with compounds, cells are lysed and luciferase activity is determined. Data is fit to a 4 parameter-fit logistics curve to determine EC50 and IC50 values. The % efficacy is determined versus maximum stimulation obtained with 30 nM R5020. In the antagonist mode the % inhibition is determined verses the effects of 30 nM R5020 alone.

A word on the ED50: it is the dose at which the effect has come halfway, by size or by number of responders. Low readings indicate greater potency, high ones weaker potency. On to `Cc1cc(-c2cn(C(C)C)c3cc(NS(C)(=O)=O)ccc23)ccc1C#N` [Ex 49, N-[3-(4-Cyano-3-methyl-phenyl)-1-isopropyl-1H-indol-6-yl]-methanesulfonamide], for which the ED50 in series [1] was less than 5 mg/kg.
For the compound `CC(C)n1cc(-c2ccc([N+](=O)[O-])cc2)c2ccc(NS(C)(=O)=O)cc21` [Example 197, N-[1-Isopropyl-3-(4-nitro-phenyl)-1H-indol-6-yl]-methanesulfonamide], in series [2], the “McPhail Index** @ 10 mpk (Antagonist Mode)” value (“McPhail Index** @ 10 mpk” below) is on record as “++ (++ 2-3)” and the “McPhail Index** @ 30 mpk (Agonist Mode)” value was “+ (+ <2)”. This compound also gave a median effective dose (ED50) in series [1] of less than 5 mg/kg.
For orientation: melting point means the temperature of the solid-liquid transition. `CC(C)n1cc(-c2cc(C#N)nn2C)c2ccc(NS(C)(=O)=O)cc21` [Example 121, N-[3-(5-Cyano-2-methyl-2H-pyrazol-3-yl)-1-isopropyl-1H-indol-6-yl]-methanesulfonamide] registered a melting point of 189 to 191 °C.
The same measure, in the same setting: the value for `CCn1nc(C#N)cc1-c1cn(C(C)C)c2cc(NS(C)(=O)=O)ccc12` [Example 124, N-[3-(5-Cyano-2-ethyl-2H-pyrazol-3-yl)-1-isopropyl-1H-indol-6-yl]-methanesulfonamide] was 144 to 145 °C.
In the case of `CCCCn1cc(-c2ccc(C#N)c(F)c2)c2ccc(NS(C)(=O)=O)cc21` [Example 53, N-[1-Butyl-3-(4-cyano-3-fluoro-phenyl)-1H-indol-6-yl]-methanesulfonamide], in series [2], the “McPhail Index** @ 10 mpk” value is “+++ (+++ ≧3)” and the “McPhail Index** @ 30 mpk (Agonist Mode)” value is given as “++ (++ 2-3)”. Also, the ED50 in series [1] is greater than 10 mg/kg.
Turning to `CC(C)n1cc(-c2cc(F)c(C#N)c(F)c2)c2ccc(NS(C)(=O)=O)cc21` [Example 170, N-[3-(4-Cyano-3,5-difluoro-phenyl)-1-isopropyl-1H-indol-6-yl]-methanesulfonamide], in series [2], the “McPhail Index** @ 10 mpk” value is recorded as “+++ (+++ ≧3)” and the “McPhail Index** @ 30 mpk (Agonist Mode)” value is given as “+++ (+++ ≧3)”. The median effective dose (ED50) in series [1] was less than 5 mg/kg.
Broadly, the pIC50 is the negative decadic logarithm of the IC50, by convention in mol/L. Read a low pIC50 as a high IC50. `CC(C)n1cc(-c2ccc(C#N)nc2)c2ccc(NS(C)(=O)=O)cc21` [Example 48, N-[3-(6-Cyano-pyridin-3-yl)-1-isopropyl-1H-indol-6-yl]-methanesulfonamide] gave a pIC50 in series [3] of roughly 7.93. Besides, in series [2], the “McPhail Index** @ 10 mpk” value is reported as “+ (+ <2)” and the “McPhail Index** @ 30 mpk (Agonist Mode)” value was “+ (+ <2)”. Besides, the ED50 in series [1] is less than 5 mg/kg.
`CC(C)n1cc(-c2ccc(C#N)c(Cl)c2)c2ccc(NS(C)(=O)=O)cc21` [Example 50, N-[3-(4-Cyano-3-chloro-phenyl)-1-isopropyl-1H-indol-6-yl]-methanesulfonamide]: in series [2], the “McPhail Index** @ 10 mpk” value is listed as “+ (+ <2)” and the “McPhail Index** @ 30 mpk (Agonist Mode)” value is reported as “+ (+ <2)”. This compound registered a median effective dose (ED50) in series [1] of less than 5 mg/kg.
